{"source": "patent US12486218B2", "about": "“Compounds advantageous in the treatment of central nervous system diseases and disorders” (AurimMed Pharma, Inc., priority 2008, dated 2025)", "key": {"[1]": {"test_system": "mice", "assay": "6 Hz (minimal clonic seizure) model, mice i.p.", "format": "in vivo", "conditions": "for activity in the 6 Hz (minimal clonic seizure) model: mice; for 6 Hz (32 mA), fraction of animals: mice i.p."}, "[2]": {"test_system": "mice", "assay": "Maximal Electroshock Seizure (MES) test, mice i.p.", "format": "in vivo", "conditions": "for MES, fraction of animals: mice i.p.; for activity in the MES test: mice"}, "[3]": {"test_system": "rats", "assay": "Pilocarpine-induced Status Epilepticus in Rats (prevention; intervention @ 30 min)", "experimental": "The animal testing was performed using the protocols developed in the Anticonvulsant Screening Program (ASP) at the National Institute of Neurological Disorders and Stroke (NINDS), National Institutes of Health (NIH)."}, "[4]": {"test_system": "SMN2 promoter", "assay": "SMN2 promoter β-lactamase reporter assay in NSC34 motor neuron-like cells", "format": "cell-based", "conditions": "for SMN2 promoter activity: treatment for 19 hours at a concentration of 1 μM; for Promoter (SMN2 promoter test, summary YES/NO): Table 13 summary", "protocol": "FIG. 30 illustrates a screen for SMN2 expression of a number of compounds described herein.\nSMN2 promoter activity was measured using NSC34 motor neuron-like cells stably transfected with a β-lactamase (BLA) reporter gene under the control of a 3.4-kilobase fragment of the SMN2 promoter. D156844 was used as a positive control for this assay."}, "[5]": {"conditions": "Rattus norvegicus, read-out: Prevention, Protection"}}}
{"smiles": "CC(C)C[C@H](NC(=O)[C@@H]1C[C@H]1c1ccccc1)C(N)=O", "note": "(mixture of isomers) [Compound Q, trans-2-Phenylcyclopropane-carboxylic acid-((S)-1-carbamoyl-3-methylbutyl)amide]", "values": [{"measurement": "activity in the 6 Hz (minimal clonic seizure) model", "setting": "[1]; at 300 mg/kg", "result": "activity"}]}
{"smiles": "CC(C)Oc1ccc(C(C)CC(N)=O)cc1", "note": "(racemic) [CB]", "values": [{"measurement": "MES, fraction of animals", "setting": "[2]; 100 mg/kg @ 0.25 hr", "result": "3/3"}, {"measurement": "MES, fraction of animals", "setting": "[2]; 100 mg/kg @ 1.0 hr", "result": "1/3"}, {"measurement": "Prevention, Protection", "setting": "[3]; rats, pilocarpine-induced status epilepticus, dose 200 mg/kg", "result": 100, "unit": "%"}]}
{"smiles": "Cc1ccc(C(C)CC(N)=O)cn1", "note": "(racemic) [CH]", "values": [{"measurement": "6 Hz (32 mA), fraction of animals", "setting": "[1]; 50 mg/kg @ 0.25 hr", "result": "1/4, 1/4"}, {"measurement": "6 Hz (32 mA), fraction of animals", "setting": "[1]; 50 mg/kg @ 0.5 hr", "result": "1/4, 1/4"}]}
{"smiles": "COc1ccc(C(C)CC(N)=O)cn1", "note": "(racemic) [CI]", "values": [{"measurement": "6 Hz (32 mA), fraction of animals", "setting": "[1]; 100 mg/kg @ 0.25 hr", "result": "1/4 @ 0.25 hr"}]}
{"smiles": "Cc1nccnc1C(C)CC(N)=O", "note": "(racemic) [CZ]", "values": [{"measurement": "6 Hz (32 mA), fraction of animals", "setting": "[1]; 100 mg/kg @ 0.25 hr", "result": "1/4 @"}, {"measurement": "6 Hz (32 mA), fraction of animals", "setting": "[1]; 100 mg/kg @ 0.5 hr", "result": "1/4 @"}, {"measurement": "6 Hz (32 mA), fraction of animals", "setting": "[1]; 100 mg/kg @ 2.0 hr", "result": "hrs and 2/4"}]}
{"smiles": "CCc1nccnc1C(C)CC(N)=O", "note": "(racemic) [DB]", "values": [{"measurement": "SMN2 promoter activity", "setting": "[4]", "result": "increased SMN2 promoter activity"}, {"measurement": "6 Hz (32 mA), fraction of animals", "setting": "[1]; 100 mg/kg @ 4.0 hr", "result": "1/4 @ 4.0 hrs."}]}
{"smiles": "CC(CC(N)=O)c1cnccn1", "note": "(racemic) [DC]", "values": [{"measurement": "Promoter (SMN2 promoter test, summary YES/NO)", "setting": "[4]", "result": "YES"}, {"measurement": "SMN2 promoter activity", "setting": "[4]", "result": "increased SMN2 promoter activity"}]}
{"smiles": "Cc1cnc(C(C)CC(N)=O)c(C)n1", "note": "(racemic) [DD]", "values": [{"measurement": "Promoter (SMN2 promoter test, summary YES/NO)", "setting": "[4]", "result": "YES"}, {"measurement": "SMN2 promoter activity", "setting": "[4]", "result": "increased SMN2 promoter activity"}, {"measurement": "6 Hz (32 mA), fraction of animals", "setting": "[1]; 100 mg/kg @ 0.5 hr", "result": "1/4 @ 0.5 hr,"}]}
{"smiles": "Cc1nc2ccccc2nc1C(C)CC(N)=O", "note": "(racemic) [DE]", "values": [{"measurement": "6 Hz (32 mA), fraction of animals", "setting": "[1]; 100 mg/kg @ 0.25 hr", "result": "1/4 @"}, {"measurement": "6 Hz (32 mA), fraction of animals", "setting": "[1]; 100 mg/kg @ 0.5 hr", "result": "1/4 @"}]}
{"smiles": "Cc1ccc(C(C)CC(N)=O)c(C)n1", "note": "(racemic) [DF]", "values": [{"measurement": "6 Hz (32 mA), fraction of animals", "setting": "[1]; 100 mg/kg @ 2.0 hr", "result": "1/4 @ 2.0"}, {"measurement": "6 Hz (32 mA), fraction of animals", "setting": "[1]; 100 mg/kg @ 4.0 hr", "result": "1/4 @ 2.0"}]}
{"smiles": "CCC(CC(N)=O)c1ccc(OC)cc1", "note": "(centres unmarked) [AB, 3-(4-Methoxy-phenyl)-pentanoicacid amide]", "values": [{"measurement": "responders at 450 mg/kg", "setting": "[3]; [5]", "result": 100, "unit": "%"}]}
{"smiles": "NC(=O)CC1(c2ccc(Cl)cc2)CCCCC1", "note": "[AK]", "values": [{"measurement": "6 Hz (32 mA), fraction of animals", "setting": "[1]; 100 mg/kg @ 0.25 hr", "result": "4/4"}, {"measurement": "6 Hz (32 mA), fraction of animals", "setting": "[1]; 100 mg/kg @ 0.5 hr", "result": "3/4"}, {"measurement": "6 Hz (32 mA), fraction of animals", "setting": "[1]; 100 mg/kg @ 1.0 hr", "result": "1/4 @"}, {"measurement": "MES, fraction of animals", "setting": "[2]; 100 mg/kg @ 0.25 hr", "result": "3/4"}, {"measurement": "MES, fraction of animals", "setting": "[2]; 100 mg/kg @ 2.0 hr", "result": "1/4"}]}
{"smiles": "COc1ccc(C2(CC(N)=O)CCCC2)cc1", "note": "[AZ]", "values": [{"measurement": "SMN2 promoter activity", "setting": "[4]", "result": "increased SMN2 promoter activity"}]}
{"smiles": "NC(=O)C1CC1(c1ccccc1)c1ccccc1", "note": "(centres unmarked) [BB, 2,2-Diphenyl-cyclopropanecarboxylicacid amide]", "values": [{"measurement": "SMN2 promoter activity", "setting": "[4]", "result": "increased SMN2 promoter activity"}, {"measurement": "activity in the 6 Hz (minimal clonic seizure) model", "setting": "[1]; at 100 mg/kg", "result": "activity"}]}
{"smiles": "CC(CC(=O)N1CCC(C(N)=O)CC1)c1ccc(OC(F)(F)F)cc1", "note": "(centres unmarked) [BN, 1-[3-(4-Trifluoromethoxy-phenyl)-butyryl]-piperidine-4carboxylic acidamide]", "values": [{"measurement": "SMN2 promoter assay, evidence of activity (may warrant further study)", "setting": "[4]; NSC34 BLA reporter cells", "result": "show evidence of activity"}, {"measurement": "activity in the MES test", "setting": "[2]; at 300 mg/kg", "result": "activity"}]}
{"smiles": "CC(C)C[C@@H](NC(=O)CC(C)c1ccc(OC(F)(F)F)cc1)C(N)=O", "note": "(stereo partly drawn) [BP, (R)-4-Methyl-2-[3-(4-trifluoromethoxy-phenyl)-butyrylamino]-pentanoic acid amide]", "values": [{"measurement": "6 Hz (32 mA), fraction of animals", "setting": "[1]; 100 mg/kg @ 0.25 hr", "result": "1/4 @ 0.25"}]}
{"smiles": "CC[C@H](NC(=O)CC(C)c1ccc(OC(F)(F)F)cc1)C(N)=O", "note": "(stereo partly drawn) [BR, N-((S)-1-Carbamoyl-propyl)-3-(4-trifluoromethoxy-phenyl)-butyramide]", "values": [{"measurement": "6 Hz (32 mA), fraction of animals", "setting": "[1]; 100 mg/kg @ 0.5 hr", "result": "1/4 @ 0.5"}, {"measurement": "activity in the MES test", "setting": "[2]; at 100 mg/kg", "result": "activity"}]}
{"smiles": "CC(CC(=O)N[C@@H](C)C(N)=O)c1ccc(OC(F)(F)F)cc1", "note": "(stereo partly drawn) [BS, N-((S)-1-Carbamoyl-ethyl)-3-(4-trifluoromethoxy-phenyl)-butyramide]", "values": [{"measurement": "6 Hz (32 mA), fraction of animals", "setting": "[1]; 100 mg/kg @ 1.0 hr", "result": "1/4 @ 1.0"}, {"measurement": "activity in the MES test", "setting": "[2]; at 300 mg/kg", "result": "activity"}]}
{"smiles": "CC(O)(CC(N)=O)c1ccc(OC(F)(F)F)cc1", "note": "(centres unmarked) [Compound CC, 3-hydroxy-3-(4(trifluoromethoxy)-phenyl)butanamide]", "values": [{"measurement": "MES, fraction of animals", "setting": "[2]; 100 mg/kg @ 0.5 hr", "result": "3/3"}, {"measurement": "MES, fraction of animals", "setting": "[2]; 100 mg/kg @ 4.0 hr", "result": "2/3"}, {"measurement": "responders at 200 mg/kg", "setting": "[3]; [5]", "result": 100, "unit": "%"}]}
{"smiles": "CC(CC(N)=O)Oc1ccc(C#N)cc1", "note": "(centres unmarked) [Compound O, 3-(4-Cyanophenoxy)butyramide]", "values": [{"measurement": "responders at 450 mg/kg", "setting": "[3]; [5]", "result": 50, "unit": "%"}]}
